Experimental data: patent publication US20090215882A1, “LYOPHILIZED SOLID TAXANE COMPOSITION, A PROCESS FOR PREPARING SAID SOLID COMPOSITION, A PHARMACEUTICAL FORMULATION AND A KIT FOR SAID FORMULATION” (ERIOCHEM, S.A., priority 2006, published 2009)

Assays:
[1] = Solubility / dissolution in aqueous solutions without organic solvent; format: physicochemical; details: for dissolution of the intermediate lyophilized taxane in aqueous Solutol HS15 solution: aqueous Solutol HS15 mixture with excipient (mannitol/citric acid or povidone), no organic solvent
Experimental: The intermediate lyophilized taxane is dissolved in aqueous solutions of polymers or a mixture of said polymers, namely Lutrol™ F68, Solutol™ HS15, povidone K12 PF or K17 PF.

[2] = Apparent density of the lyophilizate; format: physicochemical; details: intermediate lyophilized taxane (first lyophilization from organic solvent)
Description: The apparent density of the lyophilizate is defined as the quotient between the mass of the lyophilization cake in grams and its volume in milliliters.
The apparent density of the lyophilizates has been carefully assessed, and after a great number of experiments the apparent density values in which the technical effects of the invention are possible such as easy reconstitution of said solid composition of lyophilized taxane in an aqueous solution free from organic solvent were obtained. […] In other words, the lower the apparent density of the lyophilization cake, the fastest its dissolution. Also, if the apparent density of the solid composition of lyophilized taxane of the present invention is very low, the concentration of the tensoactive is not enough to maintain said taxane in solution, and said taxane precipitates rapidly.

[3] = Chemical degradation of docetaxel in aqueous tensoactive solution; format: physicochemical; details: pH maintained at values higher than 6
[4] = after administration to mammals, compared to polysorbates; cited from earlier work
[5] = estimated by the World Health Organization; cited from earlier work

Row | Compound | dissolution of the intermediate lyophilized taxane in aqueous Solutol HS15 solution [1] | apparent density [2] [g/mL] | other results
1 | CC(=O)O[C@@]12CO[C@@H]1C[C@H](O)[C@@]1(C)C(=O)[C@H](O)C3=C(C)[C@@H](OC(=O)[C@H](O)[C@@H](NC(=O)OC(C)(C)C)c4ccccc4)C[C@@](O)([C@@H](OC(=O)c4ccccc4)[C@H]21)C3(C)C [docetaxel] | – | – | solubility in aqueous solutions ([1]; commercially available API, absence of added organic solvents): not soluble; degradation to 7-epidocetaxel [3]: ≤ 60%
2 | Polyethylene glycol-15-hydroxystearate [Solutol HS15] | – | – | histaminic release [4]: very low histaminic release
3 | polysorbate 80 | – | – | maximum daily dose [5]: 25 mg/kg of body weight

The next lines start with results.

Row | dissolution of the intermediate lyophilized taxane in aqueous Solutol HS15 solution [1] | apparent density [2] [g/mL] | Compound | other results
4 | readily dissolved | 0.025 | CC(=O)O[C@@]12CO[C@@H]1C[C@H](O)[C@@]1(C)C(=O)[C@H](O)C3=C(C)[C@@H](OC(=O)[C@H](O)[C@@H](NC(=O)OC(C)(C)C)c4ccccc4)C[C@@](O)([C@@H](OC(=O)c4ccccc4)[C@H]21)C3(C)C [Example 1, docetaxel] | –
5 | readily dissolved | 0.014 | CC(=O)O[C@@]12CO[C@@H]1C[C@H](O)[C@@]1(C)C(=O)[C@H](O)C3=C(C)[C@@H](OC(=O)[C@H](O)[C@@H](NC(=O)OC(C)(C)C)c4ccccc4)C[C@@](O)([C@@H](OC(=O)c4ccccc4)[C@H]21)C3(C)C [Example 2, docetaxel] | –
